Source: patent US7618983B2, “Bicyclic triazole α4 integrin inhibitors” (Janssen Pharmaceutica, N.V., priority 2004, dated 2009)
Like-named read-outs stand apart in the source and are kept apart here.

Key:
human α4β7 integrin = biological target: T1, human α4β7 integrin (Homo sapiens, UniProt P13612+P26010); experiment: α4β7-K562 Cell Adhesion Assay (α4β7 Mediated Adhesion/MAdCAM-1); type: cell-based; details: K562 cells expressing human α4β7 adhering to FLAG-hMAdCAM-1, 1 mM Mn2+; read-out: α4β7, Madcam IC50
T1 construct: expressed in transfected cells; host or cells: K562 cells, stably transfected
T1 sequence (P13612 34-1032): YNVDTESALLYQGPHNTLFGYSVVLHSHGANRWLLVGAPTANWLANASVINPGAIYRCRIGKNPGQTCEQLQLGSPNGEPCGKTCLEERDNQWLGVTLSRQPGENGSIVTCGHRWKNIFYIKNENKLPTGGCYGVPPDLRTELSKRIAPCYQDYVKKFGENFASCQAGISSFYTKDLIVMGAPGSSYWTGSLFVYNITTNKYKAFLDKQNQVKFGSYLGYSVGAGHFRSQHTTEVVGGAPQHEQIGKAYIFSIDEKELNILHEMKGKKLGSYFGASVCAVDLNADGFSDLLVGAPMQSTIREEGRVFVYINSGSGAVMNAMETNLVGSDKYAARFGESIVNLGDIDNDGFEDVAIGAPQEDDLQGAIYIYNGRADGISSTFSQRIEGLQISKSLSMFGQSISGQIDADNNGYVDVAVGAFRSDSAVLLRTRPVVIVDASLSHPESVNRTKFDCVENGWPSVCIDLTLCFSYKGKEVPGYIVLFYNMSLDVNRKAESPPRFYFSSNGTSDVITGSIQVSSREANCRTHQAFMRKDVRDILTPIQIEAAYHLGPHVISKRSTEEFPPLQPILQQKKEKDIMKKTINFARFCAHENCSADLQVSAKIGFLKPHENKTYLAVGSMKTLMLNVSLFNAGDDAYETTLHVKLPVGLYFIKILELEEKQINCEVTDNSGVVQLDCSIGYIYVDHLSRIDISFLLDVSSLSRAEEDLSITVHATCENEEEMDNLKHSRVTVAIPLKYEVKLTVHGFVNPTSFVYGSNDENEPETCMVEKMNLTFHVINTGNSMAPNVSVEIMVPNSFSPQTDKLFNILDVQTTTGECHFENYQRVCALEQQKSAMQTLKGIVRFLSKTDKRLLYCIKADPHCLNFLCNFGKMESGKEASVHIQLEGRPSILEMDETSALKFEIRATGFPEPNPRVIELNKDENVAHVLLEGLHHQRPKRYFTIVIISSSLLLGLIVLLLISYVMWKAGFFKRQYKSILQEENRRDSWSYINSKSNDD
T1 sequence (P26010 20-798): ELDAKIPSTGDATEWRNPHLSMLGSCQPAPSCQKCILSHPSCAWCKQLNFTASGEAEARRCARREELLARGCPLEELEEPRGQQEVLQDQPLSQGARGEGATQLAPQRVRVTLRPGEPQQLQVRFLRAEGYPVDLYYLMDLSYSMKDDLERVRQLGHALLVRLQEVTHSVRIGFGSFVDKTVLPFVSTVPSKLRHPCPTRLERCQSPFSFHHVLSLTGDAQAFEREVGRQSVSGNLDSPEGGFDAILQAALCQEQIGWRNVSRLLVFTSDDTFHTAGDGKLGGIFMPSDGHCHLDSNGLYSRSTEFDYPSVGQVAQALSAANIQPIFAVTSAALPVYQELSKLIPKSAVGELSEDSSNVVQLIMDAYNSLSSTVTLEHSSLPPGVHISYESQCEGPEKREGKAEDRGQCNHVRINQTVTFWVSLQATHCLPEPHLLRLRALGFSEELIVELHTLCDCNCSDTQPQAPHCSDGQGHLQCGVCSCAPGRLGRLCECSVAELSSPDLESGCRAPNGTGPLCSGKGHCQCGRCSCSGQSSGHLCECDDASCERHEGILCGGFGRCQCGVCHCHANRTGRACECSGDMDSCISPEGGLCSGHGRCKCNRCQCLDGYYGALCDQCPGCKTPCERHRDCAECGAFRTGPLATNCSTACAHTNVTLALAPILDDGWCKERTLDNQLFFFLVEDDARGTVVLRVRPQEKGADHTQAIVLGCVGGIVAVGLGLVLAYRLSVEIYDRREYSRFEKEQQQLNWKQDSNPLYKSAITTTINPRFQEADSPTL
Description: α4β7-K562 Cell Adhesion Assay (α4β7 Mediated Adhesion/MAdCAM-1)
M2 anti-FLAG antibody coated 96-well plates (Sigma) were coated for 1 hour at 4° C. with 2-8 μl/well recombinant FLAG-hMAdCAM-1 contained in 100 μL of Dulbecco's PBS, pH 7.4, with 1% BSA and 1 mM Mn^2+ (PBS-BSA-Mn). Plates were washed once with PBS-BSA-Mn. Buffer was removed and compounds to be tested (50 μL) were added at 2 times concentration. Stably transfected K562 cells expressing human α4β7 integrin, (50 μL at 2×10^6/mL) that had been labeled with 100 μg/mL carboxymethyl fluorescein diacetate succinimidyl ester (CFDA-SE; Molecular Probes) for 15 min at 37° C. were added to each well and allowed to adhere for 1 h at room temperature. Plates were washed 4 times in PBS-BSA-Mn and then cells were lysed for 2 minutes by addition of 100 μL of PBS without Ca, Mg supplemented with 0.1 M NaOH. The plate was read on a 96-well fluorescent plate reader at 485 nm excitation and 530 nm emission.

α4β1 [1] = biological target: T2, α4β1 (Homo sapiens, UniProt P05556+P13612); experiment: Ramos Cell Adhesion Assay (α4β1 Mediated Adhesion/VCAM-1); type: cell-based; design: Ramos Cell Adhesion Assay (α4β1 Mediated Adhesion/VCAM-1); endogenous in cells; host or cells: Ramos cells; details: Ramos cells adhering to recombinant hVCAM-1; read-out: α4β1 IC50
Description: Ramos Cell Adhesion Assay (α4β1 Mediated Adhesion/VCAM-1)
Immulon 96 well plates (Dynex) were coated with 100 μL recombinant hVCAM-1 at 4.0 μg/mL in 0.05 M NaCO3 buffer pH 9.0 overnight at 4° C. (R&D Systems). Plates were washed 3 times in PBS with 1% BSA and blocked for 1 h @ room temperature in this buffer. PBS was removed and compounds to be tested (50 μL) were added at 2× concentration. Ramos cells, (50 μL at 2×10^6/mL) labeled with 5 μM Calcein AM (Molecular Probes) for 1 h at 37° C., were added to each well and allowed to adhere for 1 h at room temperature. Plates were washed 3× in PBS+1% BSA and cells were lysed for 15 minutes in 100 μL of 1 M Tris pH 8.0 with 1% SDS. The plate was read at 485 nm excitation and 530 nm emission.

α4β1 [2] = biological target: T2, α4β1; details: cited from earlier work
[3] = tested on: oxazolone-induced contact hypersensitivity; details: 6 mg/kg, sc; compared with α4 antibody PS/2; cited from earlier work
[4] = tested on: heterotopic heart allograft; details: hyperlipidemic rabbit; cited from earlier work

T2 sequence (P05556 21-798, one chain of several): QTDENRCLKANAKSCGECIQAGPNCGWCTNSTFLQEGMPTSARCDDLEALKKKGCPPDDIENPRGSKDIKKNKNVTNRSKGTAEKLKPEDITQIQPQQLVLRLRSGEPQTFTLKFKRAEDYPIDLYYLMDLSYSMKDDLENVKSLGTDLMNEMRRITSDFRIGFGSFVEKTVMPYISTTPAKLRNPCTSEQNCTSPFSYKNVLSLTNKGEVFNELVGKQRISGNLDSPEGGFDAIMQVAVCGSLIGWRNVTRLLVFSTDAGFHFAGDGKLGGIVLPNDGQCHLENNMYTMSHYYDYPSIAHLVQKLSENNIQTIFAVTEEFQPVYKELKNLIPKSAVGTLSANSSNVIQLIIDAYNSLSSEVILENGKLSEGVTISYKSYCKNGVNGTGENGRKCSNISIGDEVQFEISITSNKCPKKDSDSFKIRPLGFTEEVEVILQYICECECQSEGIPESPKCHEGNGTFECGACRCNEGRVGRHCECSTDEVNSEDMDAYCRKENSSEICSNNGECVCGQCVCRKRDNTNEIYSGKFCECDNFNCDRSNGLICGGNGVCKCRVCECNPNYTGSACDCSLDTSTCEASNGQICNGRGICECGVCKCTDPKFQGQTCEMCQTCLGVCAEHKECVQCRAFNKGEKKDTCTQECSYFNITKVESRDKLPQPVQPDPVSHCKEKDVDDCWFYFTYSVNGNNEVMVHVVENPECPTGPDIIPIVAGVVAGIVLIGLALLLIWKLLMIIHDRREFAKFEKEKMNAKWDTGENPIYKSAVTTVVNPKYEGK

Molecule	IC50 (human α4β7 integrin) [nM]	IC50 (α4β1 [1]) [nM]	IC50 (α4β1 [2]) [nM]	efficacy in contact hypersensitivity [3]	efficacy in heart allograft model [4]
COc1cccc(OC)c1-c1ccc(CC(NC(=O)C2CCc3nnc(Cc4c[nH]c5ccccc45)n32)C(=O)O)cc1 (stereo not drawn) [Cpd 16, 3-(2′,6′-Dimethoxy-biphenyl-4-yl)-2-{[3-(1H-indol-3-ylmethyl)-6,7-dihydro-5H-pyrrolo[2,1-c][1,2,4]triazole-5-carbonyl]-amino}-propionic acid]	40	> 5000			
COc1cnn(C)c(=O)c1-c1ccc(C[C@H](NC(=O)[C@@H]2CCc3nnc(Cc4ccccc4)n32)C(=O)O)cc1 [Cpd 17, 2-(S)-[(3-Benzyl-6,7-dihydro-5H-pyrrolo[2,1-c][1,2,4]triazole-5-(S)-carbonyl)-amino]-3-[4-(5-methoxy-2-methyl-3-oxo-2,3-dihydro-pyridazin-4-yl)-phenyl]-propionic acid]	400	640			
O=C(Nc1ccc(C[C@H](NC(=O)[C@@H]2CCc3n[nH]c(=O)n32)C(=O)O)cc1)c1c(Cl)cccc1Cl [Cpd 18, 3-[4-(2,6-Dichloro-benzoylamino)-phenyl]-2-(S)-[(3-oxo-2,5,6,7-tetrahydro-3H-pyrrolo[2,1-c][1,2,4]triazole-5-(S)-carbonyl)-amino]-propionic acid]	90	850			
O=C(Nc1ccc(C[C@H](NC(=O)[C@@H]2CCc3nn(Cc4ccccc4)c(=O)n32)C(=O)O)cc1)c1c(Cl)cccc1Cl [Cpd 19, 2-(S)-[(2-Benzyl-3-oxo-2,5,6,7-tetrahydro-3H-pyrrolo[2,1-c][1,2,4]triazole-5-(S)-carbonyl)-amino]-3-[4-(2,6-dichloro-benzoylamino)-phenyl]-propionic acid]	200	> 5000			
O=C(Nc1ccc(C[C@H](NC(=O)[C@@H]2CCc3n[nH]c(=O)n32)C(=O)O)cc1)c1c(Cl)cncc1Cl [Cpd 20, 3-{4-[(3,5-Dichloro-pyridine-4-carbonyl)-amino]-phenyl}-2-(S)-[(3-oxo-2,5,6,7-tetrahydro-3H-pyrrolo[2,1-c][1,2,4]triazole-5-(S)-carbonyl)-amino]-propionic acid]	50	450			
O=C(Nc1ccc(C[C@H](NC(=O)[C@@H]2CCc3nn(Cc4ccccc4)c(=O)n32)C(=O)O)cc1)c1c(Cl)cncc1Cl [Cpd 21, 2-(S)-[(2-Benzyl-3-oxo-2,5,6,7-tetrahydro-3H -pyrrolo[2,1-c][1,2,4]triazole-5-(S)-carbonyl)-amino]-3-{4-[(3,5-dichloro-pyridine-4-carbonyl)-amino]-phenyl}-propionic acid]	780	> 5000			
Phenylacetyl-Leu-Asp-Phe-D-Pro-NH2			2000	efficacy similar to the α4 antibody PS/2	effective
